This note sets out measurements from PubChem BioAssay AID1996.

Structures are written as SMILES. ≈ marks a conversion by molar mass, not a printed value. A value given as a limit tells only on which side of the number the result lay.

For this data set the following is noted: buffer; pH 7.4; 200.0 µM.
As usually defined, the kinetic solubility is solubility judged after dilution from a stock solution rather than from solid. With `COc1ccc(OC(C)C(=O)NC(C)c2ccccc2)cc1` (configuration not stated), the solubility (kinetic) is more than 0.0449 mg/mL. The value for `CC(C)N1C(=O)C2(OCCCO2)c2cc(Br)ccc21` was 0.0469 mg/mL (≈ 144 µM); that for `NC(=O)c1ccc(CN2CCc3ccccc3C2)cc1` was 0.0345 mg/mL (≈ 130 µM); that for `O=C1NC(c2ccccc2Cl)=N/C1=C/c1ccco1` was 0.0085 mg/mL (≈ 31.2 µM). Next, `CCOC(=O)c1ccc(N2C(=O)CC(Sc3nc(C)cc(C)n3)C2=O)cc1` (configuration not stated): 0.004 mg/mL (≈ 10.4 µM); `O=C(NC1CCCc2ccccc21)C12CC3CC(CC(O)(C3)C1)C2` (configuration not stated): 0.0414 mg/mL (≈ 127 µM); `S=c1[nH]c2ccccc2[nH]1`: more than 0.0225 mg/mL.

In the case of `CSc1ncccc1C(=O)OCC(=O)Nc1ccc(C)c(S(=O)(=O)N2CCOCC2)c1`, the kinetic solubility came to 0.021 mg/mL (≈ 45.1 µM).

With `Cc1ccc(S(=O)(=O)/N=C2/NC(=O)/C(=C\c3ccccc3)S2)cc1`, the solubility (kinetic) is more than 0.0538 mg/mL.

Compound `CCCc1cnc(N2CCN(C(=O)c3ccc(OC)cc3)CC2)nc1` yielded a kinetic solubility of 0.0205 mg/mL (≈ 60.2 µM). For `COc1ccc(S(=O)(=O)N2CCN(C(=O)c3cc(C)nc4ccccc34)CC2)cc1OC`, the kinetic solubility is more than 0.0683 mg/mL. `CC(NC(=O)c1ccco1)c1nc(-c2ccccc2)no1` (configuration not stated) returned a solubility (kinetic) of 0.0317 mg/mL (≈ 112 µM).

For `COc1ccc(OC)c(N(CC(=O)Nc2cccc3ccccc23)S(C)(=O)=O)c1`, the solubility (kinetic) was 0.043 mg/mL (≈ 104 µM). Next, `N#CCc1c(C#N)c(N)nc(N2CCN(C=O)CC2)c1C#N`: more than 0.0443 mg/mL. The value for `O=C(Nc1ccc(S(=O)(=O)N2CCOCC2)cc1)c1cccnc1` was more than 0.0521 mg/mL; that for `O=C(CN1C(=O)NC2(CCCCC2)C1=O)Nc1ccc2c(c1)CCC2` was 0.0051 mg/mL (≈ 14.9 µM); that for `CC(=O)c1c(C)[nH]c(C(=O)COC(=O)CCNS(=O)(=O)c2ccc(C)c(C)c2)c1C` was 0.011 mg/mL (≈ 25.3 µM).

`Cc1nc(/C(=N/O)C(N)=O)cs1` registered a solubility (kinetic) of more than 0.0278 mg/mL. The compound `CN(C)C(=O)c1cc(C(=O)c2ccc(C(F)(F)F)cc2)c[nH]1` yielded a solubility (kinetic) of 0.0016 mg/mL (≈ 5.16 µM). Next, `O=C(OCC(=O)N1CCc2ccccc2C1)c1cccs1`: 0.0368 mg/mL (≈ 122 µM); `Cc1cc(C)c2c(n1)sc1c(N3CCCCC3)ncnc12`: less than 0.0002 mg/mL; `COc1ccc(NC(=O)Nc2cccs2)cn1`: more than 0.0374 mg/mL.

Take `COc1ccc(/C=C/c2c([N+](=O)[O-])c(=O)n(C)c(=O)n2C)cc1`: the solubility (kinetic) was determined as 0.0034 mg/mL (≈ 10.7 µM). `COc1ccc(S(=O)(=O)NC2CCCCC2)cc1F` registered a solubility (kinetic) of more than 0.0431 mg/mL. With `Cc1ccc(NC(=O)CN(C)C(=O)Nc2ccc(C)cc2)cc1`, the kinetic solubility came to 0.0049 mg/mL (≈ 15.7 µM). `Cc1ccc2nc(C)cc(C(=O)Nc3nccs3)c2c1`: the solubility (kinetic) came out at 0.0193 mg/mL (≈ 68.1 µM).

Turning to `CCOc1ccc(S(=O)(=O)N(C)CC(=O)NC2CC2)cc1`, the solubility (kinetic) was more than 0.0469 mg/mL. Turning to `CCOc1ccc(C(=O)Nc2ccc3c(c2)OCCO3)cc1`, the solubility (kinetic) is less than 0.0006 mg/mL. The value for `Oc1ccc(-c2nccc(-c3ccccn3)n2)cc1` was 0.0126 mg/mL (≈ 50.5 µM); that for `CCOC(=O)c1csc(NC(=O)CN2CCN(C)CC2)n1` was more than 0.0469 mg/mL. The value for `Cc1cccc(N2C(S)=C(C#N)C(=O)NC2c2ccco2)c1` (configuration not stated) was more than 0.0467 mg/mL.

`COc1ccc(CC(=O)N2CCN=C2SC)cc1OC` returned a solubility (kinetic) of more than 0.0442 mg/mL. Take `CN(C(=O)/C=C/c1ccc2c(c1)OCO2)c1ccccc1`: the solubility (kinetic) turned out to be 0.0347 mg/mL (≈ 123 µM). In turn, `Cc1ccc2nc(N3CCCCC3)c(C=O)c(=O)n2c1` registered a solubility (kinetic) of 0.0391 mg/mL (≈ 144 µM). Next, `CC(C)(C)C1CCCCC1NC(=O)c1ccncc1` (configuration not stated): 0.0041 mg/mL (≈ 15.7 µM); `O=C(/C=C/c1cccc(F)c1)Nc1cc(S(=O)(=O)N2CCOCC2)ccc1Cl`: 0.0063 mg/mL (≈ 14.8 µM); `COc1ccc(CNC(=S)Nc2ccc(F)c(Cl)c2)cc1`: 0.0018 mg/mL (≈ 5.54 µM).

The compound `Cl.O=S1(=O)CCC(NC2CCCC2)C1` (configuration not stated) showed a kinetic solubility of more than 0.036 mg/mL. As to `CC(C)CCn1c(=O)c(C(=O)NCc2ccco2)c(O)c2ccccc21`, the solubility (kinetic) is less than 0.0004 mg/mL. The value for `Cc1cc(C)cc(NS(=O)(=O)c2c(C)[nH]c(=O)[nH]c2=O)c1` was more than 0.0464 mg/mL. Next, `O=C(NCc1ccc(Cl)cc1)C1CCCO1` (configuration not stated): more than 0.036 mg/mL; `CS(=O)(=O)Nc1ccc(S(=O)(=O)N2CCCC2)cc1`: more than 0.0457 mg/mL; `COc1ccc(S(=O)(=O)N2CCCc3ccccc32)cc1[N+](=O)[O-]`: 0.0097 mg/mL (≈ 27.8 µM). For `CC1CCN(CC(=O)Nc2ccc3c(c2)OCO3)CC1`, the kinetic solubility was more than 0.0415 mg/mL.

As to `O=C(CSc1nccc(-c2cccs2)n1)Nc1ccc(Cl)cc1`, the kinetic solubility was determined as 0.0014 mg/mL (≈ 3.87 µM). The value for `Cc1cc(Cl)ccc1NC(=S)NCC(O)c1ccccc1` (configuration not stated) was more than 0.0481 mg/mL; that for `COc1ccc2cc(C(=O)NCCCN3CCCC3=O)[nH]c2c1` was more than 0.0473 mg/mL; that for `CCOc1ccc2[nH]c(SCC(=O)OC)c([N+](=O)[O-])c2c1` was 0.0191 mg/mL (≈ 61.5 µM). Next, `CC(=O)Nc1ccc(NC(=O)CSc2ccc([N+](=O)[O-])cn2)cc1`: 0.003 mg/mL (≈ 8.66 µM); `O=C(COc1ccc(C(=O)c2ccccc2)cc1)Nc1ncccc1O`: 0.0249 mg/mL (≈ 71.5 µM); `Cc1c(C(=O)N2CCN(C)CC2)oc2ccc(Br)cc12`: more than 0.0506 mg/mL. The value for `Br.Clc1ccc(CNCC2CCCO2)cc1` (configuration not stated) was more than 0.046 mg/mL.
